Laboratory results published in patent US5104659A, “Compositions, devices and method for controlling insects” (priority 1984, dated 1992).
Like-named read-outs stand apart in the source and are kept apart here.

Experiments:
[1] = Stability of organophosphates by differential scanning calorimetry (DSC); type: physicochemical; conditions: for Onset of Decomposition: DSC; for decomposition points as determined by differential scanning calorimetry: below the 160° C. minimum temperatures encountered during extrusion or injection molding
Protocol: The insect control devices of the present invention containing the insecticide in the coating composition may be prepared at much lower temperatures, as low as about 20° C. The greatly-reduced processing temperatures allow the incorporation of active ingredients which are thermally unstable at elevated temperature. Examples of insecticides which may now be incorporated in such devices are dimethoate, dibrom, and chlorfenvinphos, illustrated in Table I. The decomposition points of these insecticides, as determined by differential scanning calorimetry (DSC), is below the 160° C. minimum temperatures encountered during extrusion or injection molding of plasticized PVC, and as such, these compounds can now be effectively incorporated in the present devices for control insect pests.

[2] = test system: pyrethroid resistant female flies; type: in vivo
[3] = test system: Resistant strain (flucythrinate resistant house flies); assay: Chamber screening evaluation of ear tags, % fly mortality, resistant strain; type: in vivo; conditions: positive control, petri dish 0.05%, 8640 min
Protocol: (§1) The ear tags are hung in a chamber covered with mesh cloth to keep the flies confined in the 12"×17"×9" space. Each chamber contains a cup of water and a supply of sugar and powdered milk.
(§2) At the start of the test, ~100 three to five day old house flies are placed in each chamber. The chambers are kept in a room with the temperature at 82° F. (27.8° C.). The flies are observed daily (except Saturday and Sunday) and mortality is recorded. At the termination of the study, the chambers are placed in a freezer overnight to kill the remaining flies, which are then counted. The percent mortality is calculated based on the number of flies that die during the observation period and the number of flies counted at the end of the study.

[4] = test system: Non-resistant strain (house flies); assay: Chamber screening evaluation of ear tags, % fly mortality, non-resistant strain; type: in vivo; conditions: positive control, petri dish 0.05%, 8640 min
Protocol: as §1, §2

[5] = pyrethroid resistant female flies

| SMILES | Onset of Decomposition [1] | LD50 [2, 5] | also measured |
| --- | --- | --- | --- |
| CCOP(=O)(OCC)OC(=CCl)c1ccc(Cl)cc1Cl [Chlorfenvinphos, 2-Chloro-1-(2,4-dichlorophenyl)-vinyl diethyl phosphate] | 157 °C | 0.1869-0.2626 Micrograms/pyrethroid resistan | decomposition points as determined by differential scanning calorimetry [1]: < 160 °C |
| COP(=O)(OC)OC(Br)C(Cl)(Cl)Br (centres unmarked) [Dibrom, 1,2-Dibromo-2,2-dichloroethyl dimethyl phosphate] | 103 °C |  | decomposition points as determined by differential scanning calorimetry [1]: < 160 °C |
| Cc1cc(Cl)ccc1N=CN(C)C [Chlordimeform] |  | > 8.0 Micrograms/pyrethroid resistan |  |
| CCOP(=S)(OCC)Oc1nc(Cl)c(Cl)cc1Cl [Chlorpyrifos] |  | 0.3144-1.486 Micrograms/pyrethroid resistan |  |
| CNC(=O)CSP(=S)(OC)OC [Dimethoate, O,O-dimethyl S-(N-methylcarbamoyl-methyl)phosphorodithioate] | 105 °C |  | decomposition points as determined by differential scanning calorimetry [1]: < 160 °C |
| CCCCOCCOCCOCc1cc2c(cc1CCC)OCO2 [Piperonyl butoxide] |  |  | LD50 ([2]; in vivo): 2.725-3.7726 |
| COP(=O)(OC)O/C(=C\Cl)c1cc(Cl)c(Cl)cc1Cl [Tetrachlorvinphos] | 190 °C |  |  |
| COP(=S)(OC)Oc1ccc(S(=O)(=O)N(C)C)cc1 [Famphur] |  |  | LD50 ([2]; in vivo): 0.1359-8.448 |
| CC(C)[C@H](C(=O)OC(C#N)c1cccc(Oc2ccccc2)c1)c1ccc(OC(F)F)cc1 (mixture of isomers) [flucythrinate, (±)-cyano(3-phenoxyphenyl)methyl (+)-4-(difluoromethoxy-α-(1-methyl-ethyl)benzeneacetate] |  |  | % Fly mortality - six days [3]: 4%; % Fly mortality - six days [4]: 77% |
| CNC(=O)ON=C(C)SC [Methomyl] |  | 0.5027-0.6807 Micrograms/pyrethroid resistan |  |
| CCOC(=O)CC(SP(=S)(OC)OC)C(=O)OCC (centres unmarked) [Malathion] |  | 4.4757-6.9321 Micrograms/pyrethroid resistan |  |
| CCOP(=S)(OCC)Oc1cc(C)nc(C(C)C)n1 [Diazinon] |  |  | LD50 ([2]; in vivo): 4.0626-6.2101 |
| O=S1OCC2C(CO1)C1(Cl)C(Cl)=C(Cl)C2(Cl)C1(Cl)Cl (centres unmarked) [Endosulfan] |  | 0.3518-0.5009 Micrograms/pyrethroid resistan |  |
| COP(=S)(OC)Oc1ccc([N+](=O)[O-])cc1Cl [Dicapthon] |  | 0.2649-0.6539 Micrograms/pyrethroid resistan |  |
| COP(=S)(OC)Oc1ccc(Sc2ccc(OP(=S)(OC)OC)cc2)cc1 [Temephos] | 142 °C |  |  |
